Assay results: patent publication US20090105349A1, “ANDROGEN MODULATORS” (WARNER-LAMBERT COMPANY LLC, priority 2004, published 2009)

Experiments:
[1] = biological target: T1, androgen receptor in MDA-MB453-MMTV clone 54-19 cells (Homo sapiens, UniProt P10275); assay: AR antagonist cell assay (MMTV-luciferase reporter); assay type: cell-based; conditions: read-out: AR Cell IC50; MDA-MB453-MMTV clone 54-19, inhibition of DHT induced luciferase, 17 hr; mean of multiple tests
T1 sequence (P10275 1-920 Q868H): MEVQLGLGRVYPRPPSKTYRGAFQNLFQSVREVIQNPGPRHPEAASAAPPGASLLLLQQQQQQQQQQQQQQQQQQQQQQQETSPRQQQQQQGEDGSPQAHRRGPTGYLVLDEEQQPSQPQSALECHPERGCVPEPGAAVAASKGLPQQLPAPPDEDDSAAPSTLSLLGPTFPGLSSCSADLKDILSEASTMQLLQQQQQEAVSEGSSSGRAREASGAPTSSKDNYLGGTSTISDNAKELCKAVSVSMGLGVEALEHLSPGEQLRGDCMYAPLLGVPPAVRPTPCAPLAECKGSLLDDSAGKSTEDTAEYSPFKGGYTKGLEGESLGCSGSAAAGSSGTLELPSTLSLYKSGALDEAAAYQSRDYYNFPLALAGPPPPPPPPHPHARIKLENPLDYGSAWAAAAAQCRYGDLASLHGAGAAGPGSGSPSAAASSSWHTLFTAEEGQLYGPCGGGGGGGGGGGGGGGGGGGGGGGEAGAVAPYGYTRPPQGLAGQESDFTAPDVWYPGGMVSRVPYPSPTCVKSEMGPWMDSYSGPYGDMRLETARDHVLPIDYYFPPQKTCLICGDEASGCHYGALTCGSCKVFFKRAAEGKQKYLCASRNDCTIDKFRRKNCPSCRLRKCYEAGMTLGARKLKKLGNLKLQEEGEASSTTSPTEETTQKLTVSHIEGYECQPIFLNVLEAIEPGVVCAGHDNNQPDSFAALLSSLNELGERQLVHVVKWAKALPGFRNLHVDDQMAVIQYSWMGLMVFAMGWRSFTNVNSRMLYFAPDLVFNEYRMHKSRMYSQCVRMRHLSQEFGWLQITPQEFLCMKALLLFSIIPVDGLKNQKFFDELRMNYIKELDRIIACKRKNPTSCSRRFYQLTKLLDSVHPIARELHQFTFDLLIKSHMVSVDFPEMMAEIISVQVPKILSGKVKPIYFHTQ

[2] = test system: male C3H/HeN mice (telogen to anagen conversion); assay type: in vivo; conditions: mouse, in vivo
From the text: While this model is a significant improvement over the telogen conversion assay as a model for human baldness, it suffers from a number of practical disadvantages. The macaques are expensive, relatively rare, labor intensive to maintain, and require long wash out periods between testing. […] Thus, the model relates to a modification of the existing telogen conversion assay. Male C3H/HeN mice approximately 7 weeks old are utilized. These animals are also uniformly in telogen, like their female counterparts. However, once shaven, the androgens inherently present in these male mice inhibit the conversion of the hair follicles to the anagen phase. An anti-androgen will block this androgenic effect and the follicles will convert to anagen, like their female counterparts.
The compounds shown below in Table IV were submitted for further testing utilizing the modified telogen conversion assay, described above. The testing was carried out in the following manner.
Male C3H/HeN mice, 6 to 7 weeks old (Charles River Laboratories, Raleigh, N.C.) were used for the study. Fur was clipped from the dorsal region of the mice prior to initiation of the study. Only mice with pink skin, a visual indication of the telogen phase, were selected for inclusion in the study.
A second group of animals received only the vehicle to serve as a control. Treatments were applied twice daily for 4 weeks.
The hair growth response was quantified by recording, for each animal, the day on which signs of hair growth first appeared over the treated area. The first sign of anagen was the darkening of skin color as melanocytes in the follicles started to synthesize melanin in preparation for the production of pigmented hairs. […] The day on which anagen was initiated in 50% of the test animals for both the treatment group and the vehicle group is reported below in Table IV.

## CSc1ccccc1Oc1ccc(C#N)cc1Cl [Example 5, 3-Chloro-4-(2-methylsulfanyl-phenoxy)-benzonitrile]
[1]
  IC50: 48 nM
[2]
  Anagen-Trx (day on which anagen was initiated in 50% of the test animals): >35 days
